Source: PubChem BioAssay AID328 (DTP/NCI, 2004)
Several values for one entry are separate records, joined by “and”; a condition that tells them apart may be missing. Equal values may be shown once. Toxic doses and inconclusive results are not listed.

Test system: BDF1 mice, P388 leukemia ip, median survival T/C
Assay: NCI In Vivo Anticancer Drug Screen. Data for tumor model P388 Leukemia (intraperitoneal) in B6D2F1 (BDF1) mice
Conditions: endpoint: median survival time, higher = longer survival
Method in brief: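 Antitumour effect was judged in vivo: survival in drug-treated mice, normalised to that of vehicle-dosed controls, gives the reported T/C.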

[1] = dose: 12.5 mg/kg/injection, schedule: Q01DX009 (ip), vehicle: saline with Tween-80
[2] = dose: 25.0 mg/kg/injection, schedule: Q01DX009 (ip), vehicle: saline with Tween-80
[3] = dose: 50.0 mg/kg/injection, schedule: Q01DX009 (ip), vehicle: saline with Tween-80
[4] = dose: 50.0 mg/kg/injection, schedule: Q01DX009 (ip), vehicle: Klucel (hydroxypropylcellulose) (HPC)
[5] = dose: 100.0 mg/kg/injection, schedule: Q01DX009 (ip), vehicle: Klucel (hydroxypropylcellulose) (HPC)
[6] = dose: 25.0 mg/kg/injection, schedule: Q04DX003 (ip), vehicle: saline with Tween-80
[7] = dose: 100.0 mg/kg/injection, schedule: Q04DX003 (ip), vehicle: saline with Tween-80
[8] = dose: 200.0 mg/kg/injection, schedule: Q04DX003 (ip), vehicle: saline with Tween-80
[9] = dose: 100.0 mg/kg/injection, schedule: Q01DX009 (ip), vehicle: saline with Tween-80
[10] = dose: 200.0 mg/kg/injection, schedule: Q01DX009 (ip), vehicle: saline with Tween-80
[11] = dose: 200.0 mg/kg/injection, schedule: Q01DX009 (ip), vehicle: Klucel (hydroxypropylcellulose) (HPC)

## CCCCOP(=O)(CCCC)OCCCC
[1]
  T/C: 109 % of control
dose: 12.5 mg/kg/injection, schedule: Q04DX003 (ip), vehicle: saline
  T/C: 100 % of control
[2]
  T/C: 104 % of control
dose: 25.0 mg/kg/injection, schedule: Q04DX003 (ip), vehicle: saline
  T/C: 104 % of control
[3]
  T/C: 109 % of control
dose: 50.0 mg/kg/injection, schedule: Q04DX003 (ip), vehicle: saline
  T/C: 104 % of control

## NCCSC(c1ccccc1)c1ccccc1
[4]
  T/C: 100 % of control
[5]
  T/C: 105 % of control

## CNCCN(C)CCN(C)Cc1ccc(OC)cc1
dose: 25.0 mg/kg/injection, schedule: Q01DX009 (ip), vehicle: water
  T/C: 101 % of control
dose: 50.0 mg/kg/injection, schedule: Q01DX009 (ip), vehicle: saline
  T/C: 111 % of control
dose: 50.0 mg/kg/injection, schedule: Q01DX009 (ip), vehicle: water
  T/C: 110 % of control
dose: 100.0 mg/kg/injection, schedule: Q01DX009 (ip), vehicle: saline
  T/C: 101 % of control
dose: 100.0 mg/kg/injection, schedule: Q01DX009 (ip), vehicle: water
  T/C: 93 % of control
dose: 200.0 mg/kg/injection, schedule: Q01DX009 (ip), vehicle: saline
  T/C: 104 % of control

## OC1OC2COC(c3ccccc3)OC2C(O)C1O (stereo not given)
dose: 75.0 mg/kg/injection, schedule: Q01DX009 (ip), vehicle: saline with Tween-80
  T/C: 107 % of control
dose: 150.0 mg/kg/injection, schedule: Q01DX009 (ip), vehicle: saline with Tween-80
  T/C: 94 % of control
dose: 300.0 mg/kg/injection, schedule: Q01DX009 (ip), vehicle: saline with Tween-80
  T/C: 91 % of control

## CC(=O)SCCC(=O)O
dose: 6.25 mg/kg/injection, schedule: Q01DX009 (ip), vehicle: saline with Tween-80
  T/C: 109 % of control
dose: 6.25 mg/kg/injection, schedule: Q04DX003 (ip), vehicle: saline with Tween-80
  T/C: 100 % of control
[1]
  T/C: 100 % of control
dose: 12.5 mg/kg/injection, schedule: Q04DX003 (ip), vehicle: saline with Tween-80
  T/C: 95 % of control
[2]
  T/C: 109 % of control
[6]
  T/C: 100 % of control

## CCN=C(N)Nc1ccc(NC(=O)c2ccc(C(=O)Nc3ccc(NC(N)=NCC)cc3)cc2)cc1
dose: 16.5 mg/kg/injection, schedule: Q04DX003 (ip), vehicle: saline with Tween-80
  T/C: 213 % of control
[6]
  T/C: 218 % of control
dose: 37.5 mg/kg/injection, schedule: Q04DX003 (ip), vehicle: saline with Tween-80
  T/C: 109 % of control
[7]
  T/C: 168 % of control
[8]
  T/C: 86 % of control

## CN(C)c1ccc(C=C2C(=O)CC(C)(C)CC2=O)cc1
[3]
  T/C: 105 % of control
[9]
  T/C: 95 % of control
[10]
  T/C: 97 % of control

## CCCSc1nc(N)nc2nc[nH]c12
dose: 100.0 mg/kg/injection, schedule: Q04DX003 (ip), vehicle: alcohol
  T/C: 100 % of control
dose: 200.0 mg/kg/injection, schedule: Q04DX003 (ip), vehicle: alcohol
  T/C: 104 % of control
dose: 400.0 mg/kg/injection, schedule: Q04DX003 (ip), vehicle: alcohol
  T/C: 90 % of control

## COC(=O)C1(C)CCc2c(ccc3ccccc23)C1=O (stereo not given)
dose: 100.0 mg/kg/injection, schedule: Q01DX001 (ip), vehicle: other
  T/C: 100 % of control
dose: 200.0 mg/kg/injection, schedule: Q01DX001 (ip), vehicle: other
  T/C: 95 % of control
dose: 400.0 mg/kg/injection, schedule: Q01DX001 (ip), vehicle: other
  T/C: 113 % of control

## CCCCCCCCCCCCSCCSCCSCCCCCCCCCCCC
dose: 100.0 mg/kg/injection, schedule: Q01DX001 (ip), vehicle: saline with Tween-80
  T/C: 95 % of control
dose: 200.0 mg/kg/injection, schedule: Q01DX001 (ip), vehicle: saline with Tween-80
  T/C: 95 % of control
dose: 400.0 mg/kg/injection, schedule: Q01DX001 (ip), vehicle: saline with Tween-80
  T/C: 90 % of control

## CN1CCc2cc3c4cc2C1Cc1ccc(O)c(c1)Oc1ccc(cc1)CC1c2c(cc(O)c(c2O4)O3)CCN1C (stereo not given)
dose: 7.5 mg/kg/injection, schedule: Q01DX009 (ip), vehicle: saline with Tween-80
  T/C: 90 % of control

## CC(=O)OC1CCC2(C)C(CC(=O)C(C)C2(O)CCc2ccoc2)C1(C)C (stereo not given)
dose: 25.0 mg/kg/injection, schedule: Q01DX009 (ip), vehicle: saline + alcohol
  T/C: 91 % of control
dose: 50.0 mg/kg/injection, schedule: Q01DX009 (ip), vehicle: saline + alcohol
  T/C: 112 % of control
dose: 100.0 mg/kg/injection, schedule: Q01DX009 (ip), vehicle: saline + alcohol
  T/C: 112 % of control

## Clc1ccc2c(c1)Nc1cc(Cl)ccc1C=C2
dose: 75.0 mg/kg/injection, schedule: Q01DX001 (ip), vehicle: saline with Tween-80
  T/C: 91 % of control
dose: 150.0 mg/kg/injection, schedule: Q01DX001 (ip), vehicle: saline with Tween-80
  T/C: 100 % of control
dose: 300.0 mg/kg/injection, schedule: Q01DX001 (ip), vehicle: saline with Tween-80
  T/C: 100 % of control

## CC(O)C#N (stereo not given)
dose: 1.25 mg/kg/injection, schedule: Q01DX009 (ip), vehicle: saline
  T/C: 108 % of control
dose: 2.5 mg/kg/injection, schedule: Q01DX009 (ip), vehicle: saline
  T/C: 101 % of control
dose: 5.0 mg/kg/injection, schedule: Q01DX009 (ip), vehicle: saline
  T/C: 101 % of control

## Cc1ccc(S(=O)(=O)N(C)c2ccccc2C(=O)O)cc1
dose: 100.0 mg/kg/injection, schedule: Q01DX001 (ip), vehicle: saline sonified
  T/C: 100 % of control
dose: 200.0 mg/kg/injection, schedule: Q01DX001 (ip), vehicle: saline sonified
  T/C: 95 % of control
dose: 400.0 mg/kg/injection, schedule: Q01DX001 (ip), vehicle: saline sonified
  T/C: 100 % of control

## CC1C(=O)OC2CC[N+]3([O-])CC=C(COC(=O)C(C)(O)C1(C)O)C23 (stereo not given)
dose: 100.0 mg/kg/injection, schedule: Q01DX010 (ip), vehicle: saline
  T/C: 100 % of control
dose: 400.0 mg/kg/injection, schedule: Q01DX010 (ip), vehicle: saline
  T/C: 110 % of control

## COC(=O)C(c1ccccc1)C(CC(=O)c1ccccc1)c1ccccc1 (stereo not given)
[4]
  T/C: 86 % of control
[5]
  T/C: 89 % of control and 99 % of control
[11]
  T/C: 92 % of control and 101 % of control
dose: 400.0 mg/kg/injection, schedule: Q01DX009 (ip), vehicle: Klucel (hydroxypropylcellulose) (HPC)
  T/C: 97 % of control

## Clc1cc(CBr)c(Cl)c(Cl)c1CBr
dose: 6.25 mg/kg/injection, schedule: Q01DX009 (ip), vehicle: Klucel (hydroxypropylcellulose) (HPC)
  T/C: 109 % of control
dose: 6.25 mg/kg/injection, schedule: Q01DX009 (ip), vehicle: saline
  T/C: 100 % of control
dose: 6.25 mg/kg/injection, schedule: Q04DX003 (ip), vehicle: saline sonified
  T/C: 95 % of control
dose: 12.5 mg/kg/injection, schedule: Q01DX009 (ip), vehicle: Klucel (hydroxypropylcellulose) (HPC)
  T/C: 109 % of control
dose: 12.5 mg/kg/injection, schedule: Q01DX009 (ip), vehicle: saline
  T/C: 103 % of control
dose: 12.5 mg/kg/injection, schedule: Q04DX003 (ip), vehicle: saline sonified
  T/C: 100 % of control
dose: 25.0 mg/kg/injection, schedule: Q01DX009 (ip), vehicle: saline
  T/C: 110 % of control
dose: 25.0 mg/kg/injection, schedule: Q04DX003 (ip), vehicle: saline sonified
  T/C: 100 % of control

## NC(=S)N=Nc1c(O)[nH]c2ccccc12
[4]
  T/C: 119 % of control
[5]
  T/C: 118 % of control
[11]
  T/C: 115 % of control

## CCN(C(=O)c1ccc(C(=O)N(CC)c2ccccc2)cc1)c1ccccc1
[7]
  T/C: 100 % of control
[8]
  T/C: 91 % of control

## OC(c1ccccc1)c1ccccc1CN1CCCNC1=S (stereo not given)
[3]
  T/C: 95 % of control
[9]
  T/C: 103 % of control
[10]
  T/C: 94 % of control
